From patent US20240091200A1 (Lilac Therapeutics, Inc., priority 2019, published 2024)
Several values for one entry are separate records, joined by “and”; a condition that tells them apart may be missing. Equal values may be shown once. Read-outs that look alike come from different tables or passages of the source.

Assays:
[1] = Plasma pharmacokinetics after an oral dose of Example 2 in SD rats; type: in vivo, Sprague Dawley rats; details: for bioavailability: oral
Description: An oral dose of Example 2 was formulated in a sterile solution of 50% water, 37.5% PEG 300, and 12.5% DMSO at 1.0 mg/mL. The dosing group consisted of three fasted male Sprague Dawley rats. At dosing, the animals weighed between 0.26 and 0.27 kg. For the oral dosing group, the formulated dose was administered via oral gavage at 5.0 mL/kg for a dose of 5.0 mg/kg. Non-compartmental pharmacokinetic analysis was performed on the plasma concentration-time data.

[2] = Plasma pharmacokinetics of Example 68 after IV infusion or PO dose in SD rats; type: in vivo
[3] = Example 68 in plasma, PO dose of Example 2 5 mg/kg, individual rats
[4] = male, Sprague Dawley, rat, plasma, po, 5 mg/kg, Example 68 in plasma, PO dose of Example 2 5 mg/kg, individual rats
[5] = male, Sprague Dawley, rat, plasma, po, 5 mg/kg, Example 68 in plasma, PO dose of Example 2 5 mg/kg, mean n=3
[6] = 30-minute IV infusion 1 mg/kg, individual rats
[7] = 30-minute IV infusion 1 mg/kg, mean n=3
[8] = PO dose 5 mg/kg, individual rats
[9] = SD, rat, plasma, po, 5 mg/kg, PO dose 5 mg/kg, mean n=3
[10] = Sprague-Dawley (SD), rat, plasma, iv, 1 mg/kg, 30-minute IV infusion 1 mg/kg, individual rats
[11] = Sprague-Dawley (SD), rat, plasma, iv, 1 mg/kg, 30-minute IV infusion 1 mg/kg, mean n=3

With `NC(=O)c1ccc(-c2ccc(-c3nn[nH]c3C(=O)O)cc2)cc1` [Example 68, 4-(4carbamoyl-[1,1biphenyl]-4-yl)-1H-1,2,3-triazole-5-carboxylic acid] the “F (bioavailability)” value ([1]; Example 68 after PO Example 2 5 mg/kg, based on IV exposure of Example 68 at 1.0 mg/kg, individual rats) was 20.2% and 17.4%, the AUC0-24 h [1, 3] was 3.36 µM·h and 2.93 µM·h and the AUCinf [1, 3] was 3.45 µM·h and 2.98 µM·h. The Cmax [1, 3] was 2.22 µM and 2.45 µM, the Tmax [1, 3] was 15 min and the AUCinf ([1]; Example 68 in plasma, PO dose of Example 2 5 mg/kg, mean n=3) was 3.25 µM·h. For the same molecule, the bioavailability ([1]; male, Sprague Dawley, rat, plasma, 5 mg/kg, Example 68 after PO Example 2 5 mg/kg, based on IV exposure of Example 68 at 1.0 mg/kg, individual rats, read-out: F (bioavailability)) was 19.4%, the bioavailability ([1]; male, Sprague Dawley, rat, plasma, 5 mg/kg, Example 68 after PO Example 2 5 mg/kg, based on IV exposure of Example 68 at 1.0 mg/kg, mean n=3, read-out: F (bioavailability)) was 19 ± 1.4% and the AUC(0-inf) [1, 4] was 3.32 µM·h. It also gave a Cmax [1, 4] of 2.12 µM, an AUC(0-t) ([1]; male, Sprague Dawley, rat, plasma, po, 5 mg/kg, Example 68 in plasma, PO dose of Example 2 5 mg/kg, individual rats, read-out: AUC0-24 h) of 3.15 µM·h and a Tmax ([1]; male, Sprague Dawley, rat, plasma, po, 5 mg/kg, Example 68 in plasma, PO dose of Example 2 5 mg/kg, individual rats, read-out: Tmax) of 30 min. The AUC(0-inf) [1, 5] was 3.25 ± 0.242 µM·h, the Cmax [1, 5] was 2.27 ± 0.171 µM and the AUC(0-t) ([1]; male, Sprague Dawley, rat, plasma, po, 5 mg/kg, Example 68 in plasma, PO dose of Example 2 5 mg/kg, mean n=3, read-out: AUC0-24 h) was 3.14 µM·h. The Tmax ([1]; male, Sprague Dawley, rat, plasma, po, 5 mg/kg, Example 68 in plasma, PO dose of Example 2 5 mg/kg, mean n=3, read-out: Tmax) was 25.2 min, the AUCinf [2, 6] was 3.11 µM·h and 3.46 µM·h and the AUClast [2, 6] was 3.09 µM·h and 3.45 µM·h. The “CL (apparent systemic clearance)” value [2, 6] was 1.04 L/h/kg and 0.93 L/h/kg, the Cmax [2, 6] was 5.1 µM and 5.35 µM and the “MRT (mean residence time)” value [2, 6] was 29.4 min and 26.4 min. The “Vss (volume of distribution)” value [2, 6] was 0.51 L/kg, the “t1/2 (terminal)” value [2, 6] was 64.8 min and 57.6 min and the “CL (apparent systemic clearance)” value [2, 7] was 0.95 L/h/kg. For the same molecule, the “t1/2 (terminal)” value [2, 7] was 61.2 min, the AUCinf [2, 8] was 0.383 µM·h and 0.479 µM·h and the AUClast [2, 8] was 0.334 µM·h and 0.396 µM·h. For the same molecule, the Cmax [2, 8] was 0.0904 µM and 0.065 µM and 0.182 µM, the “F (oral bioavailability)” value [2, 8] was 1.9% and the Tmax [2, 8] was 0.25 hr (2×) and 2.00 hr. It also gave an AUC(0-inf) ([2]; SD, rat, plasma, po, 5 mg/kg, PO dose 5 mg/kg, individual rats) of 0.485 µM·h, an AUC(0-inf) [2, 9] of 0.449 µM·h and a Cmax [2, 9] of 0.113 µM. It also gave an AUC(0-inf) [2, 10] of 3.69 µM·h, an AUC(0-t) [2, 10] of 3.68 µM·h and a Cmax [2, 10] of 4.94 µM. The clearance ([2]; Sprague-Dawley (SD), rat, plasma, iv, 1 mg/kg, 30-minute IV infusion 1 mg/kg, individual rats, read-out: CL (apparent systemic clearance) (converted)) was 0.87 L/h/kg, the MRT ([2]; Sprague-Dawley (SD), rat, plasma, iv, 1 mg/kg, 30-minute IV infusion 1 mg/kg, individual rats, read-out: MRT (mean residence time)) was 28.2 min and the Vd ([2]; Sprague-Dawley (SD), rat, plasma, iv, 1 mg/kg, 30-minute IV infusion 1 mg/kg, individual rats, read-out: Vss (volume of distribution)) was 0.41 L/kg. The half-life ([2]; Sprague-Dawley (SD), rat, plasma, iv, 1 mg/kg, 30-minute IV infusion 1 mg/kg, individual rats, read-out: t1/2 (terminal) (converted)) was 60.6 min, the AUC(0-inf) [2, 11] was 3.42 µM·h and the AUC(0-t) [2, 11] was 3.4 µM·h. The Cmax [2, 11] was 5.13 µM, the clearance ([2]; Sprague-Dawley (SD), rat, plasma, iv, 1 mg/kg, 30-minute IV infusion 1 mg/kg, mean n=3, read-out: CL (apparent systemic clearance) (converted)) was 0.95 L/h/kg and the MRT ([2]; Sprague-Dawley (SD), rat, plasma, iv, 1 mg/kg, 30-minute IV infusion 1 mg/kg, mean n=3, read-out: MRT (mean residence time)) was 28.2 ± 1.2 min. The Vd ([2]; Sprague-Dawley (SD), rat, plasma, iv, 1 mg/kg, 30-minute IV infusion 1 mg/kg, mean n=3, read-out: Vss (volume of distribution)) was 0.44 ± 0.06 L/kg, the half-life ([2]; Sprague-Dawley (SD), rat, plasma, iv, 1 mg/kg, 30-minute IV infusion 1 mg/kg, mean n=3, read-out: t1/2 (terminal) (converted)) was 61.2 ± 3.6 min and the AUC(0-t) ([2]; Sprague-Dawley (SD), rat, plasma, po, 5 mg/kg, PO dose 5 mg/kg, individual rats) was 0.429 µM·h. For the same molecule, the bioavailability ([2]; Sprague-Dawley (SD), rat, plasma, po, 5 mg/kg, PO dose 5 mg/kg, individual rats, read-out: F (oral bioavailability)) was 2.5%, the AUC(0-t) ([2]; Sprague-Dawley (SD), rat, plasma, po, 5 mg/kg, PO dose 5 mg/kg, mean n=3) was 0.386 µM·h and the bioavailability ([2]; Sprague-Dawley (SD), rat, plasma, po, 5 mg/kg, PO dose 5 mg/kg, mean n=3, read-out: F (oral bioavailability)) was 2.3%. It also gave a Tmax ([2]; Sprague-Dawley (SD), rat, plasma, po, 5 mg/kg, PO dose 5 mg/kg, mean n=3, read-out: Tmax) of 49.8 min.
